In patent US10765625B2, “Knottin-drug conjugates and methods of using the same” (THE BOARD OF TRUSTEES OF THE LELAND STANFORD JUNIOR …, priority 2016, dated 2020):
Read-outs that look alike come from different tables or passages of the source.

What was measured:
U87MG cells [1] = test: Competition binding assay with AF488-labeled EETI-2.5F (AF488-1), flow cytometry; details: competition with 1 nM AF488-1, 4° C., 3 hours, read-out: IC50 (nM), binding affinity
Procedure: Once the knottin-drug conjugates 5a-d were prepared, their binding affinity to U87MG glioblastoma cells, which are known to have elevated expression of tumor-associated integrins, was tested. […] To measure the relative binding affinities of knottins 1 and 2 and KDCs 5a-d, competition binding assays were performed using AlexaFluor 488-conjugated EETI-2.5F (AF488-1) as previously described (J. W. Kim, et al., J. Am. Chem. Soc. 2015, 137, 6-9). Cells (5×10^4 per sample) were detached with 0.05% Trypsin-EDTA, washed with IBB (25 mM Tris pH 7.4, 150 mM NaCl, 2 mM CaCl2, 1 mM MgCl2, 1 mM MnCl2, and 0.1% bovine serum albumin), and incubated with 1 nM AF488-1 and varying concentrations of competitors in 800 μL of IBB at 4° C. for 3 hours. The cells were washed twice with 800 μL of PBSA (phosphate buffered saline containing 0.1% bovine serum albumin) and the fluorescence of the surface-bound AF488-1 was determined using flow cytometry. The fluorescence was normalized to that of cells treated with AF488-1 alone to obtain the fraction bound. Half-maximal inhibitory concentration (IC50) values were determined by nonlinear regression analysis. Error bars represent the standard deviation of experiments performed in triplicate.

U87MG cells [2] = test: Cell proliferation, CCK-8 colorimetric assay; type: cell-based
Procedure: U87MG, and PANC-1 cells were grown in Dulbecco's Modified Eagle Medium (DMEM) with 10% fetal bovine serum (FBS) and 1% penicillin/streptomycin. MDA-MB-468 cells were grown in DMEM and Ham's F-12 medium (DMEM/F12) with 10% FBS and 1% penicillin/streptomycin. A2780 and BxPC3 cells were grown in Roswell Park Memorial Institute medium (RPMI) 1640+L-glutamine, with 10% FBS and 1% penicillin/streptomycin. D270 cells were grown in MEM (Richter's modification, no phenol red) with 10% FBS and 0.1% Gentamicin. Unless otherwise specified, cells were incubated at 37° C., 5% CO2. Flow cytometry was performed using an EMD Millpore Guava EasyCyte 8HT flow cytometer and the resulting data were evaluated using FlowJo software provided by TreeStar, Inc. Cell proliferation was measured using the Dojindo Cell Counting Kit-8 by replacing the media in each well with 100 μL of media containing 10% WST-8. After incubation for 1 h at 37° C., absorbance, A, at 450 nm was measured with a BioTek Synergy H4 microtiter plate reader. The background signal of CCK-8 alone was subtracted from all samples. Cell proliferation was then expressed as a percentage of absorbance relative to the control of untreated cells (Equation 2). Nonlinear regression analysis was performed using GraphPad Prism.
Next, the potency of each KDC was tested in a cell-proliferation experiment. […] Cells were seeded in a 96-well plate at a density of 2,500 cells per well and grown overnight at 37° C., 5% CO2 in DMEM with 10% FBS and 1% penicillin/streptomycin. Cells were subsequently treated with 100 μL of fresh media, containing varying concentrations of drug, protein, or protein-drug conjugate and incubated for 4 d at 37° C., 5% CO2. Cell proliferation was measured according to the method described in Section 1.3. Error bars represent the standard deviation of experiments performed in triplicate. […] Given that the linker must be cleaved to release free Gemcitabine in order for the payload to become active, the low potency of 5b can be explained by the greater stability of the carbamate group as compared to the other linkers tested.

**Q.** How did the IC50 (U87MG cells [1]) turn out when `CC(C)C[C@@H]1NC(=O)[C@@H]2CSSC[C@@H](C(=O)NCC(=O)O)NC(=O)[C@H](Cc3ccccc3)NC(=O)CNC(=O)[C@H](CC(N)=O)NC(=O)[C@@H]3CCCN3C(=O)CNC(=O)[C@@H]3CSSC[C@H](NC(=O)[C@H]([C@@H](C)O)NC(=O)[C@H](CC(C)C)NC(=O)[C@@H]4CCCN4C(=O)[C@@H]4CCCN4C(=O)[C@H](CC(N)=O)NC(=O)[C@H](CC(=O)O)NC(=O)CNC(=O)[C@H](CCCNC(=N)N)NC(=O)[C@@H]4CCCN4C(=O)[C@H](CCCNC(=N)N)NC(=O)[C@@H]4CCCN4C(=O)[C@@H](NC(=O)CN)CSSC[C@H](NC(=O)CNC(=O)[C@H](C)NC1=O)C(=O)N[C@@H](C(C)C)C(=O)N3)C(=O)N[C@@H](CCCn1cc(CCC(=O)N[C@H](C(=O)N[C@@H](C)C(=O)Nc3ccc(COC(=O)Nc4ccn([C@@H]5O[C@H](CO)[C@@H](O)C5(F)F)c(=O)n4)cc3)C(C)C)nn1)C(=O)N[C@@H](CCC(N)=O)C(=O)N[C@@H](CC(=O)O)C(=O)N[C@@H](CO)C(=O)N[C@@H](CC(=O)O)C(=O)N2` [5d] was run?
**A.** 1.5 ± 0.2 nM

**Q.** And the “Potency / growth inhibition in U87MG cells (in words)” value (U87MG cells [2]; U87MG cells, 4 d)?
**A.** low-nanomolar ED50 values

**Q.** What about the EC50 (U87MG cells [2]; U87MG cells, 4 d incubation, vs untreated control, read-out: ED50 (nM), potency) of the same compound?
**A.** 9 ± 1.8 nM

**Q.** What about the EC50 (U87MG cells [2]; U87MG glioblastoma, 4 d after treatment, read-out: ED50 (nM), cell growth inhibition) of the same compound?
**A.** 9 ± 1.8 nM
